Assay results taken from ChEMBL document CHEMBL4368856, “Probing the hras-1Y i-motif with small molecules” (Medchemcomm, 2018).
Active and inactive are the calls of the source. No cut-off for these calls is given here.

Experiments:
[1] = Binding affinity to 5'-AlexaFluor 647-labelled HRAS-1 Y i-motif DNA (unknown origin) by fluorescence titration method
[2] = Binding affinity to 5'-biotin-labelled HRAS-1 Y i-motif DNA (unknown origin) by surface plasmon resonance analysis
[3] = Binding affinity to HRAS-1 Y i-motif DNA (unknown origin) in D2O/DMSO at 100 uM by 1H-WaterLOGSY NMR analysis
[4] = Binding affinity to 5'-AlexaFluor 647-labelled HRAS-1 Y i-motif DNA (unknown origin) after 1 hr by fluorescence assay
[5] = Binding affinity to HRAS-1 Y i-motif DNA (unknown origin) in pH 6 tris-acetate buffer assessed as confirmational change at 10 to 50 uM by circular dichroism analysis
[6] = Binding affinity to HRAS-1 Y i-motif DNA (unknown origin) in pH 8 D2O/DMSO at 100 uM by 1H-WaterLOGSY NMR analysis
[7] = Binding affinity to HRAS-1 Y i-motif DNA (unknown origin) in pH 6 D2O/DMSO assessed as chemical shift perturbation in i-motif imino proton at 15 to 16 ppm up to 150 uM by NMR analysis
[8] = Binding affinity to HRAS-1 Y i-motif DNA (unknown origin) in pH 6 D2O/DMSO assessed as chemical shift perturbation in Watson-Crick imino proton at 12.5 to 14 ppm up to 150 uM by NMR analysis
[9] = Binding affinity to HRAS-1 Y i-motif DNA (unknown origin) assessed as change in melting temperature by thermal denaturation study
[10] = Binding affinity to HRAS-1 Y i-motif DNA (unknown origin) in pH 6 D2O/DMSO at 100 uM by 1H-WaterLOGSY NMR analysis
[11] = Binding affinity to HRAS-1 Y i-motif DNA (unknown origin) in pH 6 D2O/DMSO assessed as chemical shift perturbation at 7 to 12 ppm up to 150 uM by NMR analysis
[12] = Aggregation property of the compound in D2O/DMSO at 100 uM by 1H-WaterLOGSY NMR analysis; format: physicochemical
[13] = Binding affinity to 5'-ATTO/3'-TAMRA labelled HRAS-1 Y i-motif DNA (unknown origin) up to 252 uM after 10 mins by FRET assay

COc1cc(N2CCCC(N(C)CCc3ccc(OC)c(OC)c3)C2)ncn1 (stereo not given)
Kd [1]: 0.6 µM
Kd [2]: 0.2 µM

COc1ccc(CCCNc2nc(N)nc3c2CCNCC3)cc1OC
Kd [1]: 30.8 µM
Kd [2]: 78 µM

NCCn1cc(C(=O)NC2CCCN(Cc3cccc(O)c3)C2)nn1 (stereo not given)
Kd [1]: > 209 µM
Kd [2]: 243 µM

COc1cc(-c2ccc(C(C)N3CCCC3)cc2)nc(N)n1 (stereo not given)
Kd [1]: > 209 µM
Kd [2]: > 300 µM

CC(c1ccc(-c2cc(N3CCOCC3)nc(N)n2)cc1)C(C)N1CCCC1 (stereo not given)
Kd [1]: 90.7 µM
Kd [2]: 149 µM

Nc1nccc(N2CCCC(CCc3ccccc3)C2)n1 (stereo not given)
Kd [1]: > 209 µM
Kd [2]: > 300 µM

COc1ccc(CCN(C)C2CCCN(c3ccnc(C)n3)C2)cc1OC (stereo not given)
Kd [1]: 3 µM
Kd [2]: 0.3 µM

CC(c1ccc(-c2cc(NCCO)nc(N)n2)cc1)N1CCCC1 (stereo not given)
Activity [3]: Active
Activity [4]: Active
Activity [5]: Active
Activity [6]: inactive
Activity [7]: Active
Activity [8]: inactive
Activity [9]: inactive
Activity [10]: Active
Kd [1]: 1.6 µM
Activity [11]: inactive
Activity [12]: Not Active
Kd [2]: 7.4 µM
Activity [13]: inactive

COc1cc(-c2ccc(C(C)N3CCCCC3)cc2)nc(N)n1 (stereo not given)
Kd [1]: 254 µM
Kd [2]: 51 µM

COc1ccc(CCN(C)C2CCCN(c3ccnc(N)n3)C2)cc1OC (stereo not given)
Activity [4]: Active
Activity [5]: inactive
Activity [6]: inactive
Activity [7]: inactive
Activity [8]: Active
Activity [9]: inactive
Activity [10]: Active
Kd [1]: 35.6 µM
Activity [11]: Active
Kd [2]: 5.9 µM

CC(c1ccc(-c2cc(N3CCCC3)nc(N)n2)cc1)N(C)C (stereo not given)
Kd [1]: 106 µM
Kd [2]: > 300 µM

COc1ccc(CCN(C)C2CCCN(c3ccnc(N(C)C)n3)C2)cc1OC (stereo not given)
Kd [1]: 50.4 µM
Kd [2]: > 300 µM

COc1ccc(CCN(C)C2CCCN(c3cc(C)nc(N)n3)C2)cc1OC (stereo not given)
Kd [1]: 16 µM
Kd [2]: 11.6 µM
